The values below come from patent US6638947B2, “Carbocyclic and heterocyclic substituted semicarbazones and thiosemicarbazones and the use thereof” (Euro-Celtique S.A., priority 1997, dated 2003).

The target in data set [1] is T1, human skeletal muscle Na^+ channel subunit (Homo sapiens, UniProt P35499).
T1 construct: expressed in transfected cells
In words: Na^+ current recordings in HEK-293 cells stably expressing human skeletal muscle Na^+ channel subunit. It is filed as cell-based. The protocol:
The relative in vitro potency of these compounds were determined by their ability to inhibit human skeletal muscle Na^+ channel subunit stable expressed in HEK-293 cells. The techniques employed for Na^+ current recordings and analysis with the use of this cell line were similar to that described in example 36. These studies employ depolarizing prepulses of varying duration to allow drugs to bind, a brief (5 ms) repolarizing step to reprime unbound channels, followed by the test pulse (5 ms) to measure what proportion of channels are inhibited. The reduction in peak currents is then plotted as a function of prepulse duration and the time constant (τ) measured by monoexponential fit. A plot of 1/τ as a function of antagonist concentration then allows the macroscopic binding rates of the antagonists to be calculated. The anticonvulsant activities of additional compounds of the present invention were determined as described in example 38.

The test system of data set [2] is voltage-sensitive Na^+ channels. Kind of data set: Electrophysiological assay: patch-clamp recordings of voltage-sensitive Na^+ currents in acutely dissociated hippocampal neurons. The data set is classed as cell-based, rat. The protocol: Electrophysiological Assay:
Cell preparation: Acute cultures of rat hippocampal neurons were prepared daily using a modification of procedures described previously (Kuo and Bean, Mol. Pharm. 46:716-725 (1994)). Briefly, hippocampi were isolated from 3-11 day old rat pup brains (Sprague-Dawley; Charles River) and were sectioned, by hand, into 0.5-1 mm thick transverse slices (Whittemore and Koerner, Eur. J. Pharm. 192:435-438 (1991)). Slices were incubated for at least 30 min at room temperature (20-24° C.) in an oxygenated medium (124 mM NaCl, 3.3 mM KCl, 2.4 mM MgSO4, 2.5 mM CaCl2, 1.2 mM KH2PO4, 26 mM NaHCO3, pH =7.4) continuously bubbled with 5% CO2/95% O2. […]
Patch-clamp recordings of voltage-sensitive Na^+ currents: Whole-cell voltage-clamp recordings were made using conventional patch-clamp technique (Hamill et al., Pfluegers Arch. 391:85-100 (1981)) with an Axopatch 200A amplifier (Axon Instruments, Foster City, Calif.). […] Currents were recorded at room temperature (22-25° C.), filtered at 5 kHz with 4-pole Bessel filter, digitized at 20-50-μs intervals, and stored using Digidata 1200 analog/digital interface with Pclamp6/Clampex software (Axon Instruments). […] The inhibitory potency of drugs was assessed by measuring reductions in the peak amplitude of Na^+ currents induced by increasing concentrations of compounds tested. […]
In general terms: Patch clamp records ionic current or voltage across a cell membrane.

Data set [3] concerns site 2 of the Na^+ channel. It is filed as binding, rat.

Bounds are passed on as bounds.

T1 sequence (P35499 whole entry): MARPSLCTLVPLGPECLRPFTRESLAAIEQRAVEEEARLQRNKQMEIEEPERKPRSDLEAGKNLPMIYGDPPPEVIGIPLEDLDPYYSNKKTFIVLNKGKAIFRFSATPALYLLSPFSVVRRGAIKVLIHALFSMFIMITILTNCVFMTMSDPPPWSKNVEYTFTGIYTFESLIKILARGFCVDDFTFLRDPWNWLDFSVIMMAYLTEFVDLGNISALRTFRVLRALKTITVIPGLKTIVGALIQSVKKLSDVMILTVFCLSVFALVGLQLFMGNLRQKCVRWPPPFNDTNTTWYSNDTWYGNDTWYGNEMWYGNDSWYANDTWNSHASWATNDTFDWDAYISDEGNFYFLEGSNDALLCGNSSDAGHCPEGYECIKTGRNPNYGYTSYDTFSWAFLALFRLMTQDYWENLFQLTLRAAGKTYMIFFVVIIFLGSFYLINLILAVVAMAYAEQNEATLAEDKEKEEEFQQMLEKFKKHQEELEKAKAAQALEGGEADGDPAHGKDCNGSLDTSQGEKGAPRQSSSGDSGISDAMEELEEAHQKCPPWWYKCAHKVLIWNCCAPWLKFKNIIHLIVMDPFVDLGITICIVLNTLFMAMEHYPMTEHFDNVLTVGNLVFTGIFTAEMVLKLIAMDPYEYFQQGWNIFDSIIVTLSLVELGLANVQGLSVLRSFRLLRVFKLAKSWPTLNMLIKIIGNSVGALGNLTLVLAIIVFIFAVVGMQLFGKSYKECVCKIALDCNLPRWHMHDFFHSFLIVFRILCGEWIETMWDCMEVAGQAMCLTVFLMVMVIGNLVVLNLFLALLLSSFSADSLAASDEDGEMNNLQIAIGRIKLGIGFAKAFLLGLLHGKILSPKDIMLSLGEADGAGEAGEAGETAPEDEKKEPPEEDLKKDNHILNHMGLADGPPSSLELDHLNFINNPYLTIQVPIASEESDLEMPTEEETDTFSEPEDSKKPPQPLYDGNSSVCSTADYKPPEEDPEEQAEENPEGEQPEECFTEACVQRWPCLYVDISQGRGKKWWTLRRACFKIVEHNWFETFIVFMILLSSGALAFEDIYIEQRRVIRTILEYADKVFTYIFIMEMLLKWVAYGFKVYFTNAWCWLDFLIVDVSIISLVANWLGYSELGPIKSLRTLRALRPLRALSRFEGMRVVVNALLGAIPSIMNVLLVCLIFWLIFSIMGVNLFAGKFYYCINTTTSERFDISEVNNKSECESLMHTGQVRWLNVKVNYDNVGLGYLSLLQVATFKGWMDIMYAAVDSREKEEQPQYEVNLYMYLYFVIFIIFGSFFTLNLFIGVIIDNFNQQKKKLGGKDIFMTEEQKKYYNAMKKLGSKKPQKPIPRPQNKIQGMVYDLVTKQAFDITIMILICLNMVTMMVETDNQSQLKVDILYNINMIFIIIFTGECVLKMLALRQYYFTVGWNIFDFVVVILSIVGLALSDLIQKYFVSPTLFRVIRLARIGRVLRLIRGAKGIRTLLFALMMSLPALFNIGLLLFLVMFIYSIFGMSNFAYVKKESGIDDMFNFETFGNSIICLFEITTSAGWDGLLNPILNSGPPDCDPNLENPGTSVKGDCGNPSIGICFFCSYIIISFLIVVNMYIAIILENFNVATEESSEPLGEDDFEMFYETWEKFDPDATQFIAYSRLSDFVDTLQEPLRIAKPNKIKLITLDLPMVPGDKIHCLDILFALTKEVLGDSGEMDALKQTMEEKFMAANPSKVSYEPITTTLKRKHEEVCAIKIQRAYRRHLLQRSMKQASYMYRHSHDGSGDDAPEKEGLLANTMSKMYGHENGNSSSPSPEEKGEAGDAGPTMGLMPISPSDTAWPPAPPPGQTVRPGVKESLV

`NC(=O)NN=Cc1ccc(Oc2ccc(Cl)cc2F)cc1` [4-(2-Fluoro-4-chlorophenoxy)benzaldehyde semicarbazone]: the melting point (in general, the temperature of the solid-liquid transition) lay in the range of 218 to 220 °C. In data set [1], this compound registered a HsmNa^+ Ki of 0.06 µM.

In the case of `NC(=O)NN=Cc1ccc(Oc2ccc(F)cc2)cc1` [4-(4-Fluorophenoxy) benzaldehyde semicarbazone], the “effect on the overall shape of the Na^+ channel current-voltage relationship” value in data set [2] (measured at peak current) was “little effect”. With `CN(N=Cc1ccc(Oc2ccc(F)cc2)c(F)c1)C(N)=O` [4-(4-Fluorophenoxy)-3-fluorobenzaldehyde 2′-methylsemicarbazone], the melting point lay in the range of 169 to 172 °C. For the compound `NC(=O)NN=Cc1ccc(Oc2ccc(F)cc2)cc1` [4-(4-fluorophenoxy)benzaldehyde semicarbazone], the “inhibition of voltage-gated Na^+ currents” value in data set [2] (acutely dissociated rat hippocampal neurons) is recorded as “dose-dependent inhibition”. In data set [1], `NC(=O)NN=Cc1ccc(Oc2ccc3c(c2)CCC3)cc1` [4-(5-indanoxy)benzaldehyde semicarbazone, 4-(5-Indanoxy)benzaldehyde semicarbazone] came in with a HsmNa^+ Ki of 0.04 µM. In the case of `NC(=O)NN=Cc1ccc(OCC2CCCCC2)cc1` [Example 10, 4-(Cyclohexylmethoxy)benzaldehyde semicarbazone], the melting point lay in the range of 218 to 219 °C. In turn, `NC(=O)NN=Cc1ccc(OC2CCOCC2)cc1` [Example 12, 4-(4-Tetrahydropyranoxy)benzaldehyde semicarbazone] came in with a melting point of 208 to 209 °C. For the compound `NC(=O)NN=Cc1ccc(Oc2ccc([N+](=O)[O-])cc2)cc1` [Example 15, 4-(4-Nitrophenoxy)benzaldehyde semicarbazone], the melting point fell in the range of 221 to 222 °C. Same read-out and setting: to `CCCCCC(CC)Oc1ccc(C=NNC(N)=O)cc1` (stereo not shown) [Example 32b, 4-(3-Octoxy)benzaldehyde semicarbazone] belongs 45 °C; to `NC(=O)NN=Cc1ccc(Cc2ccccc2)cc1` [Example 33b, 4-Benzylbenzaldehyde semicarbazone], 118 to 120 °C. On the same count and under the same terms, to `NC(=O)NN=Cc1ccc(Oc2ccc(C(F)(F)F)cc2)cc1` [Example 34c, 4-(4-Trifluoromethylphenoxy)benzaldehyde semicarbazone] belongs 119 to 122 °C. On to `NC1=N[C@H](O)[C@H]2[C@H]3O[C@]4(O)O[C@@H]([C@@H](O)[C@@]2(N1)[C@@H]4O)[C@]3(O)CO` [Tetrodotoxin], for which, in data set [3], the IC50 (in general, the midpoint of a concentration-inhibition curve) is > 100 µM.
